PMC10141604, “Small-Molecule Inhibition of Androgen Receptor Dimerization as a Strategy against Prostate Cancer” (ACS Central Science, 2023)

Tests used:
[1] = target: T1, AR (Homo sapiens, UniProt P10275, T878A); assay: AR transcriptional activity assay (LNCaP-ARR2PB-eGFP cells); type: cell-based
T1 construct: The cells of LNCaP-ARR2PB-eGFP were; endogenous in cells; host or cells: LNCaP-ARR2PB-eGFP
T1 sequence (P10275 1-920 T878A): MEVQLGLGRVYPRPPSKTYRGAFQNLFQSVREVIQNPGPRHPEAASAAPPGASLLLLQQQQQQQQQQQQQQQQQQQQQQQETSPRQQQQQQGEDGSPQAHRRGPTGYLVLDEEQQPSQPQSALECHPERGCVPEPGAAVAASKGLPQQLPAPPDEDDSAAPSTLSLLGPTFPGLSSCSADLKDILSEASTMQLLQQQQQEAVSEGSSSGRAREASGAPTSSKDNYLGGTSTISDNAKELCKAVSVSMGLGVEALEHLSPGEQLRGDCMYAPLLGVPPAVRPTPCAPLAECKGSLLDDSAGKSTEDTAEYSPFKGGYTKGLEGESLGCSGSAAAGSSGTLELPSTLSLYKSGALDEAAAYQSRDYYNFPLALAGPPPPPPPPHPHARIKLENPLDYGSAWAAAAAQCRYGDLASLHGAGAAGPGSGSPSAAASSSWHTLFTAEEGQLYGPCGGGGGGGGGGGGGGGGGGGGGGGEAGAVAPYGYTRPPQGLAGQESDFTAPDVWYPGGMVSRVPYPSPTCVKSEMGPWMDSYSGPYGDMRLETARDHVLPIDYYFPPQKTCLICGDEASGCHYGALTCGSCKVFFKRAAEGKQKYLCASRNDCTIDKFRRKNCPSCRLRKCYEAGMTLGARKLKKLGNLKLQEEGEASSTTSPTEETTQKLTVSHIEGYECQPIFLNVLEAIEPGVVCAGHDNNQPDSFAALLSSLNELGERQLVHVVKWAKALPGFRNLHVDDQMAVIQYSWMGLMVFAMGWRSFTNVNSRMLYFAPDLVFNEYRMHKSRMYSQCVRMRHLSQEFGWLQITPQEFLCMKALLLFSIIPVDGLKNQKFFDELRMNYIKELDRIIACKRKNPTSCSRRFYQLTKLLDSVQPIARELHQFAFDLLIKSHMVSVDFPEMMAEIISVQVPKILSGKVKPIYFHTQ
Protocol: University, Hangzhou, China), respectively. […]
AR Transcriptional Activity Assay
The AR transcriptional activities were determined using the constructed LNCaP-ARR2PB-eGFP cell as previously reported.11, 12 The cells of LNCaP-ARR2PB-eGFP were […]
by seeding into a 96 -well plate (3.5× 10^4 cells/well) for 1 day incubation at 37 °C. Then, the cells were treated with 5 nM DHT and various concentrations of compounds (10 μM […]
the fluorescence intensities were determined using a Synergy H1 microplate reader

[2] = test system: PC3; assay: MTT cell viability assay, PC3; type: cell-based; conditions: 72 h
Protocol: 3-(4,5-dimethythiazol-2-yl)-2,5-diphenyl-2-H-tetrazolium bromide (MTT) colorimetric assay was employed to investigate cell viability. Cells were seeded into 96-well plates with 2-5× 10^3 cells per well (5× 10^3 cells/well for LNCaP, 22RV1, NIH-3T3, GES-1, Chang, […]
NCI-H1299, U2OS, U87) for 1 day incubation at 37 °C. Then, the cells were treated with various concentrations of compounds (22.86 nM - 50 μM) and incubated for 72 h. Then, 10 μl MTT (5 mg/ml) was added into each well and incubated for 4 h. Afterwards, 100 μl of triplex 10% SDS-0.1% HCl-phosophate-buffered saline (PBS) solutions was added into each well and incubated for overnight. The absorbance at 570 nm was measured (Eon, Bioteck, Winooski, VT). […]

[3] = target: T2, AR LBP (Rattus norvegicus, UniProt P15207); assay: Competitive ligand-binding assay (PolarScreen AR competitor assay)
T2 construct: purchased Invitrogen Life Technologies A15880
Protocol: Competitive Ligand Binding Assay
The binding affinities of M17 and M17-B15 to the LBP of AR LBD were determined
using PolarScreen™ Androgen Receptor Competitor Assay Kit (#A15880, Invitrogen Life
Technologies) according to the user manual. […]

T2 sequence (P15207 651-882 limits assumed): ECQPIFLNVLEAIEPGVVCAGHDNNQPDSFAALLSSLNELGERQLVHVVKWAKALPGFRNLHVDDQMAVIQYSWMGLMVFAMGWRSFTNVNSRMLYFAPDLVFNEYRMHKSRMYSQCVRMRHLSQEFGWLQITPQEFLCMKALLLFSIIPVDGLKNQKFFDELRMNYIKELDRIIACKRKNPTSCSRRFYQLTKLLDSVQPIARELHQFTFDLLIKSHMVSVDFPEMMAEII

- IC50 ([1]; LNCaP-ARR2PB-eGFP cells, 5 nM DHT, 3 days): 30 ± 10 nM
- improvement in AR transcriptional inhibition compared with the original hit M17 ([1]; ratio of IC50 values): > 31 fold
- binding to the conventional LBP [3]: does not target the LBP
Structure (SMILES): CC(=O)Cc1nsc(NC(=O)c2cc(-c3cccc(C(F)(F)F)c3)oc2C)n1 [Compound M17-B15]
- inhibition on the cell viability of PC3 [2]: does not show obvious inhibition
